Consider 24 compounds from ChEMBL document CHEMBL1159131, “Structural modifications of 6-naphthalene-2-carboxylate retinoids” (Bioorg Med Chem Lett, 1996).

The target of experiment [1] is T1, Retinoic acid receptor alpha (Homo sapiens) (UniProt P10276).
T1 sequence (whole entry): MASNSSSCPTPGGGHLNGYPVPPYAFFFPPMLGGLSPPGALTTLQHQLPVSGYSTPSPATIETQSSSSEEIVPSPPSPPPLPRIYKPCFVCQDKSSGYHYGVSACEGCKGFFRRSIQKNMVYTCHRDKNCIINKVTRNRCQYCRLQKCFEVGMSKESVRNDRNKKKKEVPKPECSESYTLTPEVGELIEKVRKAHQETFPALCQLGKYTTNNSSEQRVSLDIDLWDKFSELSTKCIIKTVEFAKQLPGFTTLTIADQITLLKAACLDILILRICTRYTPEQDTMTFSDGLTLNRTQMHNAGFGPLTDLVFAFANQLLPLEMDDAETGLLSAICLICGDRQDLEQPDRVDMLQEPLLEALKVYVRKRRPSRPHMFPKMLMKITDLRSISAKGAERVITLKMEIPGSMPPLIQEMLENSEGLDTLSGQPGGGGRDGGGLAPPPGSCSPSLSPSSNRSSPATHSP
Description: Transcriptional activation activity against retinoic acid receptor RAR alpha.

The target in experiment [2] is T1, Retinoic acid receptor alpha (Homo sapiens). Description: Maximum retinoic acid receptor (RAR)-alpha transactivation activity relative to retinoic acid at 10e-6 M.
In experiment [3] the target is T2, Retinoic acid receptor beta (Homo sapiens) (UniProt P10826).
T2 sequence (whole entry): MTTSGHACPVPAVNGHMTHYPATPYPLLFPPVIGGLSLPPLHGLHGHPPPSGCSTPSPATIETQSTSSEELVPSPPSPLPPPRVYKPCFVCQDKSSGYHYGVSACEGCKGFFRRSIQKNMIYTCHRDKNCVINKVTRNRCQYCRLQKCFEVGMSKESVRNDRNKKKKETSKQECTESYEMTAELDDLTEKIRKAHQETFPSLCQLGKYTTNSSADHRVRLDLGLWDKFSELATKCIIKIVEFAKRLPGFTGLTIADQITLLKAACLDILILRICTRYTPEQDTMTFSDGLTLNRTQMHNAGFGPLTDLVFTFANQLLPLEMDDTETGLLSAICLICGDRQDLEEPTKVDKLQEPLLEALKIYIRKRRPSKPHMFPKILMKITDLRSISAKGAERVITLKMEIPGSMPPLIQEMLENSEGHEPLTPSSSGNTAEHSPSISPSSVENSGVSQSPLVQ
Briefly: Transactivation activity at retinoic acid receptor beta.

The target in experiment [4] is T2, Retinoic acid receptor beta (Homo sapiens). Briefly: Maximum retinoic acid receptor (RAR)-beta transactivation activity relative to retinoic acid at 10e-6 M.
Experiment [5] concerns the target T1, Retinoic acid receptor alpha (Homo sapiens). Description: Transcriptional activation activity against retinoic acid receptor RAR alpha; Not active.
Experiment [6] deals with T2, Retinoic acid receptor beta (Homo sapiens). Briefly: Transcriptional activation activity against retinoic acid receptor RAR beta; Not active.
Experiment [7] deals with T3, Retinoic acid receptor gamma (Homo sapiens) (UniProt P13631).
T3 sequence (whole entry): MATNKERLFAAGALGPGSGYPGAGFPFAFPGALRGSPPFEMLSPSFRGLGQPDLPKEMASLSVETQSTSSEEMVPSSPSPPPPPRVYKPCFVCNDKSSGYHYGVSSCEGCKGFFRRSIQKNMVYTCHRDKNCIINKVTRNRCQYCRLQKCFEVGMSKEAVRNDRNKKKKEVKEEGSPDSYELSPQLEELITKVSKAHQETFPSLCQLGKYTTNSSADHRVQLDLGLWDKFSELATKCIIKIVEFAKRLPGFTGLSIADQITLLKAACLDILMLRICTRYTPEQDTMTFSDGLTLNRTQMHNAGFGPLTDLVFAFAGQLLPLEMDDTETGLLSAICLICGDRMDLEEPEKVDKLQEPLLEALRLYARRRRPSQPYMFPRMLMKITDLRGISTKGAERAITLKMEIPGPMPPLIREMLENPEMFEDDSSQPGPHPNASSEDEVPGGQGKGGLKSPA
Description: Transcriptional activation activity against retinoic acid receptor RAR gamma; Not active.

Calls of active or inactive are those of the source. No cut-off for these calls is given here.

As to `CC1(C)CCC(C)(C)c2cc(Sc3ccc4cc(C(=O)O)ccc4c3)ccc21`, the values for the EC50 ratio in experiment [1] and in experiment [3] were 25 and 10, respectively. In addition, the figures for the Max in experiment [2] and in experiment [4] were 45% and 88%, respectively.

In the case of `CC1(C)CCC(C)(C)c2cc(Nc3ccc4cc(C(=O)O)ccc4c3)ccc21`, the values for the EC50 ratio in experiment [1] and in experiment [3] were 25 and 17, respectively. Besides, the figures for the Max in experiment [2] and in experiment [4] were 27% and 92%, respectively.

On to `CC1(C)CCC(C)(C)c2cc(S(=O)(=O)/C=C/c3ccc(C(=O)O)cc3)ccc21`, for which the EC50 ratio result in experiment [5] is “inactive”. The Max turned out to be 0% in experiment [2] and 35% in experiment [4]. Also, the EC50 ratio in experiment [3] is 200.

Turning to `Cc1cc2c(cc1C(O)c1ccc3cc(C(=O)O)ccc3c1)C(C)(C)CCC2(C)C` (stereo unspecified), in experiment [5], the EC50 ratio entry was “inactive”. Also, the Max in experiment [2] came to 0%; in experiment [4] it was 96%. Also, the EC50 ratio in experiment [3] turned out to be 100.

As for `CC1(C)CCC(C)(C)c2c(F)cc(C(=O)c3ccc4cc(C(=O)O)ccc4c3)cc21`, the EC50 ratio was 10 in experiment [1] and 4 in experiment [3]. Moreover, the Max in experiment [2] was determined as 63%; in experiment [4], 81%.

Turning to `CC1(C)CCC(C)(C)c2cc(C(=O)c3ccc4cc(C(=O)O)ccc4c3)c(F)cc21`, the EC50 ratio in experiment [1] was found to be 25; in experiment [3] it was 15. In addition, the Max in experiment [2] came out at 34%; in experiment [4], 81%.

As for `CC1(C)CCC(C)(C)c2cc(Oc3ccc4cc(C(=O)O)ccc4c3)ccc21`, the EC50 ratio in experiment [1] came to 63; in experiment [3], 20. Further, the Max turned out to be 56% in experiment [2] and 120% in experiment [4].

On to `Cc1cc2c(cc1C(=O)c1ccc3cc(C(=O)O)ccc3c1)C(C)(C)CCC2(C)C`, for which the EC50 ratio in experiment [1] and in experiment [3] was 25 each time. The figures for the Max in experiment [2] and in experiment [4] were 26% and 81%, respectively.

For the compound `CC1(C)CCC(C)(C)c2cc(C(O)c3ccc4cc(C(=O)O)ccc4c3)c(F)cc21` (stereo unspecified), the EC50 ratio entry in experiment [5] is “inactive”. Further, the Max in experiment [2] stood at 0%; in experiment [4], 30%. In addition, in experiment [3], the EC50 ratio amounted to 133.

With `CC1(C)CCC(C)(C)c2cc(S(=O)(=O)c3ccc4cc(C(=O)O)ccc4c3)ccc21`, the EC50 ratio entry in experiment [5] was “inactive”. Also, the Max in experiment [2] worked out at 0%; in experiment [4], 32%. Besides, the EC50 ratio in experiment [3] was 133.

As to `CC1(C)CCC(C)(C)c2cc(C(=O)c3ccc4cc(C(=O)O)ccc4c3O)ccc21`, the EC50 ratio entry in experiment [5], in experiment [6] and in experiment [7] was “inactive” in each case. Also, the Max in experiment [2] and in experiment [4] was 0% in each case.

Take `CC1(C)CCC(C)(C)c2cc(C(=O)c3ccc4cc(C(=O)O)ccc4c3)c(O)cc21`: the EC50 ratio in experiment [1] was 25; in experiment [3], 7.5. Also, the Max worked out at 44% in experiment [2] and 76% in experiment [4].

As to `CC1(C)CCC(C)(C)c2cc(C(=O)/C=C/c3ccc(C(=O)O)cc3)ccc21`, the EC50 ratio came to 0.7 in experiment [1] and 1.2 in experiment [3].

In the case of `CC1(C)CCC(C)(C)c2cc(C(O)c3ccc4cc(C(=O)O)ccc4c3)ccc21` (stereo unspecified), the Max turned out to be 0% in experiment [2] and 77% in experiment [4].

Take `COc1c(C(=O)c2ccc3c(c2)C(C)(C)CCC3(C)C)ccc2cc(C(=O)O)ccc12`: the EC50 ratio result in experiment [5], in experiment [6] and in experiment [7] was “inactive” in each case. Also, the Max in experiment [2] and in experiment [4] was 0% each time.

Turning to `COc1cc2c(cc1C(=O)c1ccc3cc(C(=O)O)ccc3c1)C(C)(C)CCC2(C)C`, the figures for the EC50 ratio in experiment [1] and in experiment [3] were 8 and 14, respectively. For the same compound, the results for the Max in experiment [2] and in experiment [4] were 23% and 61%, respectively.

For the compound `CC1(C)CCC(C)(C)c2c1ccc(C(O)c1ccc3cc(C(=O)O)ccc3c1)c2F` (stereo unspecified), the EC50 ratio entry in experiment [5] was “inactive”. For the same compound, the Max in experiment [2] was 0%; in experiment [4] it was 74%. For the same compound, the EC50 ratio in experiment [3] worked out at 133.

Consider `CC1(C)CCC(C)(C)c2c(F)cc(C(O)c3ccc4cc(C(=O)O)ccc4c3)cc21` (stereo unspecified), for which the EC50 ratio entry in experiment [5], in experiment [6] and in experiment [7] was “inactive” in each case. In addition, the Max in experiment [2] and in experiment [4] was 0% throughout.

On to `CC1(C)CCC(C)(C)c2cc([S+]([O-])/C=C/c3ccc(C(=O)O)cc3)ccc21` (stereo unspecified), for which the EC50 ratio in experiment [1] is 38; in experiment [3], 40. The Max is 42% in experiment [2] and 96% in experiment [4].

Regarding `CC1(C)CCC(C)(C)c2cc(C(O)c3ccc4cc(C(=O)O)ccc4c3)c(O)cc21` (stereo unspecified), the EC50 ratio result in experiment [5] and in experiment [6] was “inactive” in each case. Further, the Max in experiment [2] was 0%; in experiment [4], 18%.

With `COc1c(C(=O)c2ccc3cc(C(=O)O)ccc3c2)ccc2c1C(C)(C)CCC2(C)C`, the EC50 ratio result in experiment [5], in experiment [6] and in experiment [7] was “inactive” throughout. Further, the Max in experiment [2] and in experiment [4] was 0% in each case.

Regarding `CC1(C)CCC(C)(C)c2cc([S+]([O-])c3ccc4cc(C(=O)O)ccc4c3)ccc21` (stereo unspecified), the EC50 ratio entry in experiment [5] is “inactive”. The Max is 0% in experiment [2] and 52% in experiment [4]. The EC50 ratio in experiment [3] amounted to 167.

On to `CC1(C)CCC(C)(C)c2c1cc(O)c(C(=O)c1ccc3cc(C(=O)O)ccc3c1)c2F`, for which the EC50 ratio in experiment [1] came out at 100; in experiment [3], 6.7. Besides, the Max is 46% in experiment [2] and 87% in experiment [4].

Take `CC1(C)CCC(C)(C)c2cc(S/C=C/c3ccc(C(=O)O)cc3)ccc21`: the EC50 ratio in experiment [1] amounted to 1.3; in experiment [3], 0.8. The Max in experiment [2] turned out to be 118%; in experiment [4], 158%.
